Test system: SEM cells
Assay: cell viability relative to DMSO control; higher = less cytotoxic
Details: 48 h
Procedure, shortened: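 Viability is expressed as a percentage of DMSO wells within each plate, and cell-free wells serve as background. Seeding densities in the 1536-well plates (5 μl) were 500 cells/well for NOMO1 or SEM leukemia cells and 1000 cells/well for P12-Ichikawa. Each line was adapted for at least four passages in each medium. Library compounds in DMSO were pin-dosed at 47 μM to 0.79 nM (11 points, threefold), and CellTiter-Glo One luminescence was read after 48 h at 37°C.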

[1] = HPLM + 10% dialyzed FBS, 0.000781 µM
[2] = HPLM + 10% dialyzed FBS, 0.00234 µM
[3] = HPLM + 10% dialyzed FBS, 0.00702 µM
[4] = HPLM + 10% dialyzed FBS, 0.0211 µM
[5] = HPLM + 10% dialyzed FBS, 0.0632 µM
[6] = HPLM + 10% dialyzed FBS, 0.19 µM
[7] = HPLM + 10% dialyzed FBS, 0.569 µM
[8] = HPLM + 10% dialyzed FBS, 1.71 µM
[9] = HPLM + 10% dialyzed FBS, 5.12 µM
[10] = HPLM + 10% dialyzed FBS, 15.4 µM
[11] = HPLM + 10% dialyzed FBS, 46.1 µM
[12] = RPMI 5 mM glucose + 10% FBS, 0.000781 µM
[13] = RPMI 5 mM glucose + 10% FBS, 0.00234 µM
[14] = RPMI 5 mM glucose + 10% FBS, 0.00702 µM
[15] = RPMI 5 mM glucose + 10% FBS, 0.0211 µM
[16] = RPMI 5 mM glucose + 10% FBS, 0.0632 µM
[17] = RPMI 5 mM glucose + 10% FBS, 0.19 µM
[18] = RPMI 5 mM glucose + 10% FBS, 0.569 µM
[19] = RPMI 5 mM glucose + 10% FBS, 1.71 µM
[20] = RPMI 5 mM glucose + 10% FBS, 5.12 µM
[21] = RPMI 5 mM glucose + 10% FBS, 15.4 µM
[22] = RPMI 5 mM glucose + 10% FBS, 46.1 µM
[23] = RPMI 5 mM glucose + 10% dialyzed FBS, 0.000781 µM
[24] = RPMI 5 mM glucose + 10% dialyzed FBS, 0.00234 µM
[25] = RPMI 5 mM glucose + 10% dialyzed FBS, 0.00702 µM
[26] = RPMI 5 mM glucose + 10% dialyzed FBS, 0.0211 µM
[27] = RPMI 5 mM glucose + 10% dialyzed FBS, 0.0632 µM
[28] = RPMI 5 mM glucose + 10% dialyzed FBS, 0.19 µM
[29] = RPMI 5 mM glucose + 10% dialyzed FBS, 0.569 µM
[30] = RPMI 5 mM glucose + 10% dialyzed FBS, 1.71 µM
[31] = RPMI 5 mM glucose + 10% dialyzed FBS, 5.12 µM
[32] = RPMI 5 mM glucose + 10% dialyzed FBS, 15.4 µM
[33] = RPMI 5 mM glucose + 10% dialyzed FBS, 46.1 µM

Row | Compound | cell viability [1] [%] | cell viability [2] [%] | cell viability [3] [%] | cell viability [4] [%] | cell viability [5] [%] | cell viability [6] [%] | cell viability [7] [%] | cell viability [8] [%] | cell viability [9] [%] | cell viability [10] [%] | cell viability [11] [%] | cell viability [12] [%] | cell viability [13] [%] | cell viability [14] [%] | cell viability [15] [%] | cell viability [16] [%] | cell viability [17] [%] | cell viability [18] [%] | cell viability [19] [%] | cell viability [20] [%] | cell viability [21] [%] | cell viability [22] [%] | cell viability [23] [%] | cell viability [24] [%] | cell viability [25] [%] | cell viability [26] [%] | cell viability [27] [%] | cell viability [28] [%] | cell viability [29] [%] | cell viability [30] [%] | cell viability [31] [%] | cell viability [32] [%] | cell viability [33] [%]
1 | COc1cc(-c2nn(C3CCC(N4CCN(C(C)=O)CC4)CC3)c3ncnc(N)c23)ccc1NC(=O)c1cc2ccccc2n1C (centres undefined) | 121 | 117 | 123 | 113 | 123 | 126 | 123 | 142 | 121 | 121 | 101 | 125 | 117 | 115 | 109 | 131 | 140 | 132 | 135 | 129 | 122 | 85.5 | 104 | 124 | 121 | 128 | 124 | 111 | 117 | 130 | 120 | 113 | 90
2 | CCCCN(CCCC)C(=O)CN1C[C@H](c2ccc3c(c2)OCO3)[C@@H](C(=O)O)[C@@H]1c1ccc(OC)cc1 | 98.6 | 107 | 114 | 98.2 | 103 | 105 | 106 | 92.5 | 28.4 | 55.3 | 63.4 | – | – | – | – | – | – | – | – | – | – | – | 112 | 112 | 125 | 84.8 | 116 | 127 | 109 | 106 | 74.8 | 75.8 | 67
3 | N\C1=N\C2=C(N=C[N]2COC(CO)CO)C(=O)N1 | 103 | 98.8 | 96.8 | 111 | 97 | 104 | 108 | 108 | 104 | 82.4 | 3.99 | 83.9 | 78.2 | 92.2 | 93.2 | 94.9 | 96.3 | 88.2 | 87.4 | 76 | 64.8 | 2.7 | 94.6 | 98.7 | 105 | 108 | 106 | 108 | 113 | 103 | 115 | 94.7 | 4.17
4 | CC(C)(C)NC(=O)[C@@H]1CN(Cc2cccnc2)CCN1C[C@@H](O)C[C@@H](Cc1ccccc1)C(=O)N[C@H]1c2ccccc2C[C@H]1O.O=S(=O)(O)O | 73.5 | 89.2 | 93.5 | 100 | 94.1 | 96.5 | 104 | 90.9 | 93.3 | 90.3 | 78.7 | 109 | 99.5 | 104 | 114 | 107 | 108 | 112 | 122 | 95.6 | 92.1 | 54.5 | 102 | 102 | 109 | 119 | 94.9 | 118 | 122 | 112 | 96.9 | 90.4 | 62.8
5 | C#C[C@]1(O)CC[C@H]2[C@@H]3CCc4cc(OC)ccc4[C@H]3CC[C@@]21C | 115 | 108 | 114 | 119 | 122 | 114 | 110 | 107 | 40.3 | 111 | 107 | 119 | 114 | 120 | 127 | 126 | 125 | 120 | 130 | 109 | 145 | 109 | 110 | 111 | 113 | 125 | 120 | 110 | 107 | 134 | 106 | 122 | 97.7
